From the supplement of paper PMC10627819

Legend:
[1] = tested on: S. aureus DSM 20231; test: fitness (endpoint OD595 vs no drug) (fraction); higher = more growth
In short: (§1)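 Bacterial fitness was scored as optical density at the stationary-phase transition relative to the robust mean of no-drug control wells. Scores are capped at 1. The growth data were OD595 readings every 30 min for 14 h at 37 °C, background-subtracted against the first reading, from 384-well plates inoculated at OD595 0.01 in TSB, LB Lennox or CY.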

[2] = tested on: S. pneumoniae D39V; test: as above
In short: as §1

[3] = first compound 250 µg/mL, partner 1.25 µg/mL
[4] = first compound 250 µg/mL, partner 2.5 µg/mL
[5] = first compound 250 µg/mL, partner 5 µg/mL
[6] = first compound 500 µg/mL, partner 1.25 µg/mL
[7] = first compound 500 µg/mL, partner 2.5 µg/mL
[8] = first compound 500 µg/mL, partner 5 µg/mL
[9] = first compound 1000 µg/mL, partner 1.25 µg/mL
[10] = first compound 1000 µg/mL, partner 2.5 µg/mL
[11] = first compound 1000 µg/mL, partner 5 µg/mL
[12] = first compound 250 µg/mL, partner 1.5 µg/mL
[13] = first compound 250 µg/mL, partner 3 µg/mL
[14] = first compound 500 µg/mL, partner 3 µg/mL
[15] = first compound 1000 µg/mL, partner 1.5 µg/mL
[16] = first compound 1000 µg/mL, partner 3 µg/mL
[17] = first compound 250 µg/mL, partner 1 µg/mL
[18] = first compound 250 µg/mL, partner 2 µg/mL
[19] = first compound 250 µg/mL, partner 4 µg/mL
[20] = first compound 500 µg/mL, partner 1 µg/mL
[21] = first compound 1000 µg/mL, partner 1 µg/mL
[22] = first compound 1000 µg/mL, partner 2 µg/mL
[23] = first compound 250 µg/mL, partner 0.0625 µg/mL
[24] = first compound 500 µg/mL, partner 0.0625 µg/mL
[25] = first compound 1000 µg/mL, partner 0.0625 µg/mL
[26] = first compound 250 µg/mL, partner 0.125 µg/mL
[27] = first compound 250 µg/mL, partner 0.25 µg/mL
[28] = first compound 500 µg/mL, partner 0.25 µg/mL
[29] = first compound 1000 µg/mL, partner 0.25 µg/mL
[30] = first compound 250 µg/mL, partner 0.75 µg/mL
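Note: OD595 on entry to stationary phase over no-drug wells; at most 1.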

With CC(=O)Oc1ccccc1C(=O)O [Acetylsalicylic acid] + C[C@@H]1O[C@@H]1P(=O)(O)O [Fosfomycin] the fitness ([1]; first compound 250 µg/mL, partner 0.781 µg/mL) was 0.621, the fitness ([1]; first compound 250 µg/mL, partner 1.562 µg/mL) was 0.537 and the fitness ([1]; first compound 250 µg/mL, partner 3.124 µg/mL) was 0.487. It also gave a fitness ([1]; first compound 500 µg/mL, partner 0.781 µg/mL) of 0.619, a fitness ([1]; first compound 500 µg/mL, partner 1.562 µg/mL) of 0.546 and a fitness ([1]; first compound 500 µg/mL, partner 3.124 µg/mL) of 0.452. For the same compound, the fitness ([1]; first compound 1000 µg/mL, partner 0.781 µg/mL) was 0.51, the fitness ([1]; first compound 1000 µg/mL, partner 1.562 µg/mL) was 0.438 and the fitness ([1]; first compound 1000 µg/mL, partner 3.124 µg/mL) was 0.283. The fitness [2, 3] was 0.989, the fitness [2, 4] was 0.939 and the fitness [2, 5] was 0.831. The fitness [2, 6] was 0.955, the fitness [2, 7] was 0.939 and the fitness [2, 8] was 0.88. It also gave a fitness [2, 9] of 0.862, a fitness [2, 10] of 0.82 and a fitness [2, 11] of 0.791.
CC(=O)Oc1ccccc1C(=O)O [Acetylsalicylic acid] + C[n+]1ccc(-c2cc[n+](C)cc2)cc1 [Paraquat] was tested, and the fitness [1, 3] was 0.877, the fitness [1, 4] was 0.868 and the fitness [1, 5] was 0.861. The fitness [1, 6] was 0.823, the fitness [1, 7] was 0.807 and the fitness [1, 8] was 0.774. The fitness [2, 12] was 0.972, the fitness [2, 13] was 0.954 and the fitness ([2]; first compound 250 µg/mL, partner 6 µg/mL) was 0.934. The fitness ([2]; first compound 500 µg/mL, partner 1.5 µg/mL) was 0.969, the fitness [2, 14] was 0.938 and the fitness ([2]; first compound 500 µg/mL, partner 6 µg/mL) was 0.872. The fitness [2, 15] was 0.916, the fitness [2, 16] was 0.873 and the fitness ([2]; first compound 1000 µg/mL, partner 6 µg/mL) was 0.772.
CC(=O)Oc1ccccc1C(=O)O [Acetylsalicylic acid] + Cc1cc(NS(=O)(=O)c2ccc(N)cc2)no1 [Sulfamethoxazol] showed a fitness [1, 17] of 0.862, a fitness [1, 18] of 0.855 and a fitness [1, 19] of 0.844. It also gave a fitness [1, 20] of 0.683, a fitness [1, 21] of 0.53 and a fitness [1, 22] of 0.522. For the same compound, the fitness [2, 17] was 0.941, the fitness [2, 18] was 0.946 and the fitness [2, 19] was 0.909. It also gave a fitness [2, 20] of 0.905, a fitness ([2]; first compound 500 µg/mL, partner 2 µg/mL) of 0.926 and a fitness ([2]; first compound 500 µg/mL, partner 4 µg/mL) of 0.872. It also gave a fitness [2, 21] of 0.78, a fitness [2, 22] of 0.811 and a fitness ([2]; first compound 1000 µg/mL, partner 4 µg/mL) of 0.842.
Work on CC(=O)Oc1ccccc1C(=O)O [Acetylsalicylic acid] + Cc1ncc([N+](=O)[O-])n1CCO [Metronidazole] yielded a fitness ([1]; first compound 250 µg/mL, partner 0.625 µg/mL) of 0.939, a fitness [1, 3] of at least 1 and a fitness [1, 4] of at least 1. It also gave a fitness ([1]; first compound 500 µg/mL, partner 0.625 µg/mL) of 0.778, a fitness [1, 6] of 0.791 and a fitness [1, 7] of 0.759. For the same compound, the fitness ([2]; first compound 250 µg/mL, partner 1.073 µg/mL) was 0.982, the fitness [2, 3] was 0.971 and the fitness ([2]; first compound 250 µg/mL, partner 2.145 µg/mL) was 0.959. For the same compound, the fitness [2, 4] was 0.989, the fitness ([2]; first compound 250 µg/mL, partner 4.29 µg/mL) was 0.937 and the fitness [2, 5] was 0.972. It also gave a fitness ([2]; first compound 500 µg/mL, partner 1.073 µg/mL) of 0.979, a fitness [2, 6] of 0.975 and a fitness ([2]; first compound 500 µg/mL, partner 2.145 µg/mL) of 0.965. The fitness [2, 7] was 1, the fitness ([2]; first compound 500 µg/mL, partner 4.29 µg/mL) was 0.975 and the fitness [2, 8] was 0.965. The fitness ([2]; first compound 1000 µg/mL, partner 1.073 µg/mL) was 0.946, the fitness [2, 9] was 0.906 and the fitness ([2]; first compound 1000 µg/mL, partner 2.145 µg/mL) was 0.936. The fitness [2, 10] was 0.914, the fitness ([2]; first compound 1000 µg/mL, partner 4.29 µg/mL) was 0.932 and the fitness [2, 11] was 0.915.
CC(=O)Oc1ccccc1C(=O)O [Acetylsalicylic acid] + Cc1onc(-c2ccccc2)c1C(=O)N[C@@H]1C(=O)N2[C@@H]1SC(C)(C)[C@@H]2C(=O)O [Oxacillin] showed a fitness ([1]; first compound 250 µg/mL, partner 0.0156 µg/mL) of 0.763, a fitness ([1]; first compound 250 µg/mL, partner 0.0312 µg/mL) of 0.583 and a fitness [1, 23] of 0.494. For the same compound, the fitness ([1]; first compound 500 µg/mL, partner 0.0156 µg/mL) was 0.656, the fitness ([1]; first compound 500 µg/mL, partner 0.0312 µg/mL) was 0.548 and the fitness [1, 24] was 0.508. It also gave a fitness ([1]; first compound 1000 µg/mL, partner 0.0156 µg/mL) of 0.561, a fitness ([1]; first compound 1000 µg/mL, partner 0.0312 µg/mL) of 0.519 and a fitness [1, 25] of 0.393. It also gave a fitness ([2]; first compound 250 µg/mL, partner 0.005 µg/mL) of 0.987, a fitness ([2]; first compound 250 µg/mL, partner 0.01 µg/mL) of 0.969 and a fitness ([2]; first compound 250 µg/mL, partner 0.02 µg/mL) of 0.886. For the same compound, the fitness ([2]; first compound 250 µg/mL, partner 0.04 µg/mL) was 0.501, the fitness ([2]; first compound 500 µg/mL, partner 0.005 µg/mL) was 0.959 and the fitness ([2]; first compound 500 µg/mL, partner 0.01 µg/mL) was 0.984. The fitness ([2]; first compound 500 µg/mL, partner 0.02 µg/mL) was 0.91, the fitness ([2]; first compound 500 µg/mL, partner 0.04 µg/mL) was 0.643 and the fitness ([2]; first compound 1000 µg/mL, partner 0.005 µg/mL) was 0.921.
Work on CC(=O)Oc1ccccc1C(=O)O [Acetylsalicylic acid] + Cn1nnc(-c2ccc(-c3ccc(N4C[C@H](CO)OC4=O)cc3F)cn2)n1 [Tedizolid] yielded a fitness [1, 23] of 0.839, a fitness [1, 26] of 0.778 and a fitness [1, 27] of 0.403. For the same compound, the fitness [1, 28] was 0.327, the fitness [1, 29] was 0.128 and the fitness ([2]; first compound 250 µg/mL, partner 0.03125 µg/mL) was 0.968. It also gave a fitness [2, 23] of 0.989, a fitness [2, 26] of 0.864 and a fitness [2, 27] of 0.534. For the same compound, the fitness ([2]; first compound 250 µg/mL, partner 0.5 µg/mL) was 0.208, the fitness ([2]; first compound 500 µg/mL, partner 0.03125 µg/mL) was 0.989 and the fitness [2, 24] was 0.986. For the same compound, the fitness ([2]; first compound 500 µg/mL, partner 0.125 µg/mL) was 0.789, the fitness [2, 28] was 0.472 and the fitness ([2]; first compound 500 µg/mL, partner 0.5 µg/mL) was 0.175. The fitness ([2]; first compound 1000 µg/mL, partner 0.03125 µg/mL) was 0.966, the fitness [2, 25] was 0.962 and the fitness ([2]; first compound 1000 µg/mL, partner 0.125 µg/mL) was 0.728. The fitness [2, 29] was 0.385 and the fitness ([2]; first compound 1000 µg/mL, partner 0.5 µg/mL) was 0.16.
Work on CC(=O)Oc1ccccc1C(=O)O [Acetylsalicylic acid] + N[C@@H]1CONC1=O [Cycloserine D] yielded a fitness ([1]; first compound 250 µg/mL, partner 0.375 µg/mL) of 0.96, a fitness [1, 30] of 0.953 and a fitness [1, 12] of 0.93.
CC(=O)Oc1ccccc1C(=O)O [Acetylsalicylic acid] + O=C(N[C@H](CO)[C@H](O)c1ccc([N+](=O)[O-])cc1)C(Cl)Cl [Chloramphenicol] was tested, and the fitness [1, 30] was 0.688, the fitness [1, 12] was 0.498 and the fitness [1, 13] was 0.136. The fitness [1, 14] was 0.098, the fitness ([1]; first compound 1000 µg/mL, partner 0.75 µg/mL) was 0.307 and the fitness [1, 15] was 0.225. It also gave a fitness [1, 16] of 0.0799.
For CN(C)[C@@H]1C(O)=C(C(N)=O)C(=O)[C@@]2(O)C(O)=C3C(=O)c4c(O)ccc(Cl)c4[C@@](C)(O)[C@H]3C[C@@H]12 [Chlortetracycline] + CCCCCCCCCC(=O)N[C@@H]1[C@H]([C@@H]([C@H](O[C@H]1OC2=C3C=C4C=C2OC5=C(C=C(C=C5)[C@H]([C@H]6C(=O)N[C@@H](C7=C(C(=CC(=C7)O)OC8[C@H]([C@H]([C@@H]([C@H](O8)CO)O)O)O)C9=C(C=CC(=C9)[C@H](C(=O)N6)NC(=O)[C@@H]4NC(=O)[C@@H]1C2=CC(=CC(=C2)OC2=C(C=CC(=C2)[C@H](C(=O)N[C@H](CC2=CC(=C(O3)C=C2)Cl)C(=O)N1)N)O)O)O)C(=O)O)O[C@H]1[C@@H]([C@H]([C@@H]([C@H](O1)CO)O)O)NC(=O)C)Cl)CO)O)O [Teicoplanin], the fitness ([1]; first compound 0.006 µg/mL, partner 0.1562 µg/mL, one replicate, main component drawn) was 0.707, the fitness ([1]; first compound 0.006 µg/mL, partner 0.3125 µg/mL, one replicate, main component drawn) was 0.905 and the fitness ([1]; first compound 0.006 µg/mL, partner 0.625 µg/mL, one replicate, main component drawn) was 0.997. For the same compound, the fitness ([1]; first compound 0.012 µg/mL, partner 0.1562 µg/mL, main component drawn) was 0.656, the fitness ([1]; first compound 0.012 µg/mL, partner 0.625 µg/mL, main component drawn) was 0.756 and the fitness ([1]; first compound 0.048 µg/mL, partner 0.1562 µg/mL, main component drawn) was 0.0926. It also gave a fitness ([1]; first compound 0.048 µg/mL, partner 0.3125 µg/mL, main component drawn) of 0.0866 and a fitness ([1]; first compound 0.048 µg/mL, partner 0.625 µg/mL, main component drawn) of 0.0794.
